How the values were obtained:
Format in all cases: in vitro ADME
[1] = Microsomal stability, human liver microsomes; conditions: for CLint scaled at 1 µM: pH 7.4, human liver microsomes, in vitro, reaction started with NADPH; for human CLhep: predicted hepatic clearance from human liver microsomes
Protocol: (§1) The metabolic stability of each compound was investigated in mouse and human hepatic microsomes using substrate depletion methodology (% parent compound remaining). Prior to use, microsomes were removed from the freezer and allowed to thaw in a 37 °C water bath before being placed on wet ice.
(§2) In separate 96-well plates for each time point, a mixture of 0.1 M potassium phosphate-buffered (pH 7.4), 3 mM MgCl2, and 2.5 mg/mL microsomes were prewarmed at 37 °C for 5 min. Following the preincubation, a 1 μM test compound and 1 mM NADPH (for 3, 7, 15, 25, or 45 min time points) or buffer (for 0 min time point) were added to initiate the reaction. Under standard conditions, reactions were initiated with the addition of NADPH. To delineate the contribution of esterases, some experiments were initiated by the addition of substrate in the presence or absence of NADPH. Plates were incubated at 37 °C under ambient oxygenation. At the respective times, each plate’s reaction was precipitated by the addition of 2 volumes of ice-cold acetonitrile containing an internal standard (carbamazepine, 50 nM). The plates were centrifuged at 4000 rcf (4 °C) for 5 min. The resulting supernatants were transferred and diluted 1:1 (supernatant:water) into new 96-well plates in preparation for LC/MS/MS analysis. Each compound was assayed in triplicate within the same 96-well plate. The in vitro half-life (t1/2, min, eq 1), intrinsic clearance (CLint, mL/min/kg, eq 2), and subsequent predicted hepatic clearance (CLhep, mL/min/kg, eq 3) were determined employing the following equations [drawing 1] 1 [drawing 2] 2 [drawing 3] 3 The estimated percent contribution to metabolism was calculated from the percent substrate lost plots generated from metabolic incubations initiated with the addition of a test compound. Calculations compared the area under the curve (AUC) from conditions in the presence and absence of NADPH and buffer-only (control) conditions (eqs 4 and 5). AUC was calculated by using the trapezoidal method [drawing 4] 4 [drawing 5] 5
(§3) The analysis of in vitro samples from microsomal stability or plasma protein binding experiments was determined by employing LCMS/MS with an electrospray ionization-enabled 5500 Sciex instrument (Sciex, Foster City, CA) that was coupled to Agilent HPLC pumps and an autosampler (Agilent Technologies, Santa Clara, CA). Analytes were separated by gradient elution using a Kinetex C18 column (2.1 mm × 50 mm, 5 μm; Phenomenex, Torrance, CA) warmed to 35 °C. Mobile phase A was 0.5% formic acid in water, and mobile phase B was 0.5% formic acid in acetonitrile. […] The total run time was 2.8 min, and the HPLC flow rate was 0.5 mL/min. Mass spectral analyses were performed using multiple reaction monitoring, with transitions and voltages specific for each analyte using a Turbo Ion Spray source (source temperature of 500 °C) in positive ionization mode (5.0 kV spray voltage). Multiple reaction monitoring transitions were the following: 6110B8 (m/z 345.02 → 149.03, DP = 31; EP = 10; CE = 37 and CXP = 14), 6G3R (m/z 421.06 → 225.12, DP = 91; EP = 10; CE = 39 and CXP = 12), 5D22 (m/z 309.068 → 211.16, DP = 131; EP = 10; CE = 29 and CXP = 12), and carbamazepine (m/z 237 → 194, DP = 96; EP = 10; CE = 25 and CXP = 8). Data were analyzed using OS Sciex Analyst 1.5.1 (SCIEX, Framingham, MA), Graphpad Prism 10.1.0 (GraphPad Software, Boston, Massachusetts), and Microsoft Excel version 2310 (Microsoft, Redmond, WA).

[2] = Microsomal stability, mouse liver microsomes; conditions: for CLint scaled at 1 µM: pH 7.4, mouse liver microsomes, in vitro, reaction started with NADPH; for mouse CLhep: predicted hepatic clearance from mouse liver microsomes
Protocol: as §1, §2, §3

[3] = Modified microsomal clearance assay with or without NADPH, human liver microsomes; conditions: for Estimated % Contribution to Metabolism Human CYPs/FMOs / Estimated % Contribution to Metabolism Human Esterases: HLM, from AUC with/without NADPH vs buffer only; for CLint scaled at 1 µM: human, liver microsomes, pH 7.4, HLM, reaction initiated by test compound
Protocol: It is of note that the experimental design for the initial round of microsomal clearance assays adds a test compound to microsomes before the reaction is started by the addition of nicotinamide adenine dinucleotide phosphate (NADPH). This design assumes that the major contributing drug-metabolizing enzymes are cytochrome P450s (CYPs). To investigate this further, the experimental design was modified where the reaction was initiated by the addition of a test compound and was carried out in the presence or absence of NADPH. […] By comparison of the measured intrinsic clearance in the presence and absence of NADPH, the contribution of non-CYP450 drug-metabolizing enzymes can be estimated.
Mammalian liver microsomes include CYPs, flavin monooxygenases (FMOs), glucuronosyltransferases ([…]), and esterases as part of their enzyme composition. In the presence of NADPH, which serves as a cofactor for CYP- and FMO-dependent reactions, the observed activity can be attributed to these enzymes. Similarly, UGTs require the cofactor uridine diphosphate glucuronic acid (UDPGA). Therefore, when NADPH and UDPGA are absent, any reduction in the compound can be ascribed only to esterase activity or chemical instability. […] This is based on two factors: (1) the stability of the compounds in HP buffer, which is used in the platelet assays, and (2) the low probability of drug metabolism occurring within the platelets themselves. Together, these minimize the chance that any metabolites with distinct PAR4 potencies could confound the results. By comparing the area under the curve of the compound metabolized from the microsomal incubations in the presence or absence of NADPH to the corresponding area under the curve of the buffer-only incubation, the percent contribution of CYPs and FMOs and esterases were estimated (Table S1). The major contributing enzyme toward the metabolism of 12 is esterases in both the human (96%) and mouse (98%). In contrast, the metabolism of 31 was primarily driven by CYPs and FMOs in both HLM (80%) and MLM (88%).
as §2
Clint (mL/min/kg) Estimated % Contribution to Metabolism
Compound Human Mouse Human Mouse +NADPH -NADPH +NADPH -NADPH CYPs/FMOs Esterases CYPs/FMOs Esterases […]

[4] = Plasma protein binding, mouse plasma; conditions: pH 7.4, read-out: mouse PPB fu
Protocol: The protein binding of each compound was determined in mouse plasma via equilibrium dialysis employing single-use RED plates with inserts (Thermo Fisher Scientific, Rochester, NY). Plasma (220 μL) was added to a 96-well plate containing test compound (5 μL) and mixed thoroughly. Subsequently, 200 μL of the plasma–compound mixture was transferred to the cis chamber (red) of the RED plate with an accompanying 350 μL of phosphate buffer (25 mM, pH 7.4) in the trans chamber. The RED plate was sealed and incubated for 4 h at 37 °C with shaking. At completion, 50 μL aliquots from each chamber were diluted 1:1 (50 μL) with either plasma (cis) or buffer (trans) and transferred to a new 96-well plate, at which time ice-cold acetonitrile (2 volumes) was added to extract the matrices. The plate was centrifuged (3000 rpm, 10 min), and supernatants were transferred and diluted 1:1 (supernatant: water) into a new 96-well plate, which was then sealed in preparation for LC/MS/MS analysis. Each compound was assayed in triplicate within the same 96-well plate.
The analysis of in vitro samples from microsomal stability or plasma protein binding experiments was determined by employing LCMS/MS with an electrospray ionization-enabled 5500 Sciex instrument (Sciex, Foster City, CA) that was coupled to Agilent HPLC pumps and an autosampler (Agilent Technologies, Santa Clara, CA). Analytes were separated by gradient elution using a Kinetex C18 column (2.1 mm × 50 mm, 5 μm; Phenomenex, Torrance, CA) warmed to 35 °C. Mobile phase A was 0.5% formic acid in water, and mobile phase B was 0.5% formic acid in acetonitrile. […] The total run time was 2.8 min, and the HPLC flow rate was 0.5 mL/min. […] Data were analyzed using OS Sciex Analyst 1.5.1 (SCIEX, Framingham, MA), Graphpad Prism 10.1.0 (GraphPad Software, Boston, Massachusetts), and Microsoft Excel version 2310 (Microsoft, Redmond, WA).

SMILES | CLint scaled at 1 µM [1] [mL/min/kg] | human CLhep [1] [mL/min/kg] | CLint scaled at 1 µM [2] [mL/min/kg] | mouse CLhep [2] [mL/min/kg] | Estimated % Contribution to Metabolism Human CYPs/FMOs [3] [%] | Estimated % Contribution to Metabolism Human Esterases [3] [%] | CLint scaled at 1 µM ([3]; +NADPH) [mL/min/kg] | CLint scaled at 1 µM ([3]; -NADPH) [mL/min/kg] | fraction unbound at 4 h [4]
O=C(Nc1nc[nH]n1)c1nn(-c2ccccc2)c2c1CCC2 [Compound 17] | 49.6 | 14.8 | 2440 | 86.8 | 39 | 61 | 26.8 | 12.4 | 0.006
O=C(Nc1n[nH]c(-c2ccc(F)cc2F)n1)c1nn(-c2ccccc2)c2c1CCCC2 [Compound 31] | 459 | 20.1 | 19900 | 89.6 | 80 | 20 | 144 | 15.6 | 0.044

More lines, now with the values ahead:

CLint scaled at 1 µM [1] [mL/min/kg] | human CLhep [1] [mL/min/kg] | CLint scaled at 1 µM [2] [mL/min/kg] | mouse CLhep [2] [mL/min/kg] | Estimated % Contribution to Metabolism Human CYPs/FMOs [3] [%] | Estimated % Contribution to Metabolism Human Esterases [3] [%] | CLint scaled at 1 µM ([3]; +NADPH) [mL/min/kg] | CLint scaled at 1 µM ([3]; -NADPH) [mL/min/kg] | fraction unbound at 4 h [4] | SMILES
407 | 20 |  |  |  |  |  |  |  | Cc1cc(C(=O)Nc2n[nH]c(OC(F)F)n2)nn1-c1ccccc1 [Compound 9]
478 | 20.1 | 11500 | 89.3 | 4 | 96 | 642 | 352 | 0.169 | Cn1nc(C(=O)Nc2n[nH]c(-c3c(F)cccc3F)n2)cc1C1CC1 [Compound 12]
285 | 19.6 |  |  |  |  |  |  |  | COc1cccc(-c2nc(NC(=O)c3nn(-c4ccccc4)c4c3CCCC4)n[nH]2)c1 [Compound 32]

Reference: PMC11020070, “Discovery of Protease-Activated Receptor 4 (PAR4)-Tethered Ligand Antagonists Using Ultralarge Virtual Screening” (ACS Pharmacology & Translational Science, 2024)
